Measured values as given in publication doi:10.1101/2025.01.28.635346v1 (bioRxiv, 2025).
Like-named read-outs stand apart in the source and are kept apart here. Bridge positions count the residues as written; N and C are the ends. Side chains are listed from the residue outwards. Peptide text beside a SMILES is read from it. * marks the point of attachment. Butanoyl(4-(4-I-phenyl)) = O=C(CCCc1ccc(I)cc1)*; PEG2 = NCCOCCOCCC(=O)O

Columns and labels:
[1] = target: integrin αvβ6 (Homo sapiens, UniProt P06756+P18564); test: ELISA competition assay, integrin αvβ6 binding to LAP
[2] = target: integrin αvβ8 (Homo sapiens, UniProt P06756+P26012); test: ELISA competition assay, integrin αvβ8 binding to LAP
[3] = Pharmacokinetics in female Balb/c mice; format: in vivo, mouse
[4] = αvβ6 IC50, ELISA competition vs LAP, mean, n ≥ 3
[5] = Table S3E, IP 10 mg/kg, mouse, animal 1F001
[6] = Table S3E, IP 10 mg/kg, mouse, animal 1F002
[7] = Table S3E, IP 10 mg/kg, mouse, animal 1F003
[8] = Table S3E, IP 10 mg/kg, mouse, animal 1F005
[9] = female, Balb/c, mouse, plasma, ip, 10 mg/kg

With CC(C)C[C@H](NC(=O)[C@H](CC(=O)O)NC(=O)CNC(=O)[C@H](CCCNC(=N)N)NC(=O)[C@@H](NC(=O)[C@H](Cc1ccccc1)NC(=O)[C@H](Cc1ccc(O)cc1)NC(=O)[C@@H]1CCC(=O)NCC(=O)NCC(=O)N[C@@H](CCCNC(=N)N)C(=O)NCC(=O)N[C@@H](CCC(N)=O)C(=O)N[C@@H](C(C)C)C(=O)N2CCC[C@H]2C(=O)N1)C(C)C)C(=O)N[C@@H](CCC(N)=O)C(=O)N[C@@H](CO)C(=O)N[C@@H](Cc1ccccc1)C(=O)N[C@@H](Cc1ccc(O)cc1)C(=O)NCC(=O)O [lassotide 40] (GGRGQVPEYFVRGDLQSFYG-OH; lactam N-8; C-terminus assumed) the IC50 [1, 4] was 2 nM and the IC50 [2] was 2.6 nM.
CC(C)C[C@H](NC(=O)[C@H](CC(=O)O)NC(=O)CNC(=O)[C@H](CCCNC(=N)N)NC(=O)[C@@H](NC(=O)[C@H](Cc1ccccc1)NC(=O)[C@H](Cc1ccc(O)cc1)NC(=O)[C@@H]1CCC(=O)NCC(=O)NCC(=O)N[C@@H](CCCNC(=N)N)C(=O)NCC(=O)N[C@@H](CO)C(=O)N[C@@H](C(C)C)C(=O)N2CCC[C@H]2C(=O)N1)C(C)C)C(=O)N[C@@H](CCC(N)=O)C(=O)N[C@@H](CO)C(=O)N[C@@H](Cc1ccccc1)C(=O)N[C@@H](Cc1ccc(O)cc1)C(=O)NCC(=O)O [lassotide 39] (GGRGSVPEYFVRGDLQSFYG-OH; lactam N-8; C-terminus assumed) showed an IC50 [1, 4] of 3.1 nM and an IC50 [2] of 5.1 nM.
Work on CC[C@H](C)[C@H](NC(=O)[C@H](CC(C)C)NC(=O)[C@H](CC(=O)O)NC(=O)CNC(=O)[C@H](CCCNC(=N)N)NC(=O)[C@@H](NC(=O)[C@H](Cc1ccccc1)NC(=O)[C@H](Cc1ccc(O)cc1)NC(=O)[C@@H]1CCC(=O)NCC(=O)NCC(=O)N[C@@H](Cc2c[nH]cn2)C(=O)NCC(=O)N[C@@H](Cc2c[nH]cn2)C(=O)N[C@@H](C(C)C)C(=O)N2CCC[C@H]2C(=O)N1)C(C)C)C(=O)N[C@@H](CO)C(=O)N[C@@H](Cc1ccccc1)C(=O)N[C@@H](Cc1ccc(O)cc1)C(=O)NCC(=O)O [lassotide 31] (GGHGHVPEYFVRGDLISFYG-OH; lactam N-8; C-terminus assumed) yielded an IC50 [1, 4] of 21 nM and an IC50 [2] of 27 nM.
In the case of CC[C@H](C)[C@@H]1NC(=O)[C@H](CO)NC(=O)CNC(=O)[C@H](CCCNC(=N)N)NC(=O)CNC(=O)CNC(=O)CC[C@@H](C(=O)N[C@@H](Cc2ccc(O)cc2)C(=O)N[C@@H](Cc2ccccc2)C(=O)N[C@H](C(=O)N[C@@H](CCCNC(=N)N)C(=O)NCC(=O)N[C@@H](CC(=O)O)C(=O)N[C@@H](CC(C)C)C(=O)N[C@@H](CCC(N)=O)C(=O)N[C@@H](CO)C(=O)N[C@@H](Cc2ccccc2)C(=O)N[C@@H](Cc2ccc(O)cc2)C(=O)NCC(=O)O)C(C)C)NC(=O)[C@@H]2CCCN2C1=O [lassotide 41] (GGRGSIPEYFVRGDLQSFYG-OH; lactam N-8; C-terminus assumed), the IC50 [1, 4] is reported as 1.4 nM and the IC50 [2] is reported as 5.8 nM.
For CC[C@H](C)[C@H](NC(=O)[C@H](CC(C)C)NC(=O)[C@H](CC(=O)O)NC(=O)CNC(=O)[C@H](CCCNC(=N)N)NC(=O)[C@@H](NC(=O)[C@H](Cc1ccccc1)NC(=O)[C@H](Cc1ccc(O)cc1)NC(=O)[C@@H]1CCC(=O)NCC(=O)NCC(=O)N[C@@H](CCCCNC(=O)CCOCCOCCNC(=O)CCCc2ccc(I)cc2)C(=O)NCC(=O)N[C@@H](Cc2c[nH]cn2)C(=O)N[C@@H](C(C)C)C(=O)N2CCC[C@H]2C(=O)N1)C(C)C)C(=O)N[C@@H](CO)C(=O)N[C@@H](Cc1ccccc1)C(=O)N[C@@H](Cc1ccc(O)cc1)C(=O)N[C@@H](CCCCNC(=O)CCOCCOCCNC(=O)CCCc1ccc(I)cc1)C(=O)O [lassotide 52] (GGK([PEG2-Butanoyl(4-(4-I-phenyl))])GHVPEYFVRGDLISFYK([PEG2-Butanoyl(4-(4-I-phenyl))])-OH; lactam N-8), the “further increase in half-life” value ([3]; 52 vs 47, 10 mg/kg IP, mice) was 4.4 fold, the “Plasma Concentration” value ([3]; IP 10 mg/kg, 1.0 h, animal 1F001) was 31600 ng/mL and the “Plasma Concentration” value ([3]; IP 10 mg/kg, 1.0 h, animal 1F002) was 21000 ng/mL. The “Plasma Concentration” value ([3]; IP 10 mg/kg, 1.0 h, animal 1F003) was 36300 ng/mL, the “Plasma Concentration” value ([3]; IP 10 mg/kg, 1.0 h, animal 1F005) was 34200 ng/mL and the “Plasma Concentration” value ([3]; IP 10 mg/kg, 2.0 h, animal 1F001) was 50800 ng/mL. The “Plasma Concentration” value ([3]; IP 10 mg/kg, 2.0 h, animal 1F002) was 35000 ng/mL, the “Plasma Concentration” value ([3]; IP 10 mg/kg, 2.0 h, animal 1F003) was 53100 ng/mL and the “Plasma Concentration” value ([3]; IP 10 mg/kg, 2.0 h, animal 1F005) was 40000 ng/mL. The “Plasma Concentration” value ([3]; IP 10 mg/kg, 4.0 h, animal 1F001) was 54500 ng/mL, the “Plasma Concentration” value ([3]; IP 10 mg/kg, 4.0 h, animal 1F002) was 51100 ng/mL and the “Plasma Concentration” value ([3]; IP 10 mg/kg, 4.0 h, animal 1F003) was 59300 ng/mL. For the same compound, the “Plasma Concentration” value ([3]; IP 10 mg/kg, 4.0 h, animal 1F005) was 43400 ng/mL, the “Plasma Concentration” value ([3]; IP 10 mg/kg, 8.0 h, animal 1F001) was 45300 ng/mL and the “Plasma Concentration” value ([3]; IP 10 mg/kg, 8.0 h, animal 1F002) was 43800 ng/mL. For the same compound, the “Plasma Concentration” value ([3]; IP 10 mg/kg, 8.0 h, animal 1F003) was 51000 ng/mL, the “Plasma Concentration” value ([3]; IP 10 mg/kg, 8.0 h, animal 1F005) was 35200 ng/mL and the “Plasma Concentration” value ([3]; IP 10 mg/kg, 12 h, animal 1F001) was 37900 ng/mL. The “Plasma Concentration” value ([3]; IP 10 mg/kg, 12 h, animal 1F002) was 43800 ng/mL, the “Plasma Concentration” value ([3]; IP 10 mg/kg, 12 h, animal 1F003) was 43800 ng/mL and the “Plasma Concentration” value ([3]; IP 10 mg/kg, 12 h, animal 1F005) was 30500 ng/mL. For the same compound, the “Plasma Concentration” value ([3]; IP 10 mg/kg, 24 h, animal 1F001) was 22500 ng/mL, the “Plasma Concentration” value ([3]; IP 10 mg/kg, 24 h, animal 1F002) was 24300 ng/mL and the “Plasma Concentration” value ([3]; IP 10 mg/kg, 24 h, animal 1F003) was 34800 ng/mL. For the same compound, the “Plasma Concentration” value ([3]; IP 10 mg/kg, 24 h, animal 1F005) was 19900 ng/mL, the “Plasma Concentration” value ([3]; IP 10 mg/kg, 36 h, animal 1F001) was 16100 ng/mL and the “Plasma Concentration” value ([3]; IP 10 mg/kg, 36 h, animal 1F002) was 17400 ng/mL. For the same compound, the “Plasma Concentration” value ([3]; IP 10 mg/kg, 36 h, animal 1F003) was 22000 ng/mL, the “Plasma Concentration” value ([3]; IP 10 mg/kg, 36 h, animal 1F005) was 13400 ng/mL and the “Plasma Concentration” value ([3]; IP 10 mg/kg, 48 h, animal 1F001) was 11200 ng/mL. The “Plasma Concentration” value ([3]; IP 10 mg/kg, 48 h, animal 1F002) was 12400 ng/mL, the “Plasma Concentration” value ([3]; IP 10 mg/kg, 48 h, animal 1F003) was 13200 ng/mL and the “Plasma Concentration” value ([3]; IP 10 mg/kg, 48 h, animal 1F005) was 7330 ng/mL. The AUClast [3, 5] was 1290 µg·h/mL, the CL/F [3, 5] was 0.104 mL/min/kg and the Cmax [3, 5] was 54500 ng/mL. It also gave a Tmax [3, 5] of 4.0 h, a Vz/F [3, 5] of 0.179 L/kg and a t1/2 [3, 5] of 20 h. The AUClast [3, 6] was 1330 µg·h/mL, the CL/F [3, 6] was 0.0981 mL/min/kg and the Cmax [3, 6] was 51100 ng/mL. It also gave a Tmax [3, 6] of 4.0 h, a Vz/F [3, 6] of 0.176 L/kg and a t1/2 [3, 6] of 21 h. The AUClast [3, 7] was 1610 µg·h/mL, the CL/F [3, 7] was 0.0829 mL/min/kg and the Cmax [3, 7] was 59300 ng/mL. It also gave a Tmax [3, 7] of 4.0 h, a Vz/F [3, 7] of 0.151 L/kg and a t1/2 [3, 7] of 21 h. It also gave an AUClast [3, 8] of 1050 µg·h/mL, a CL/F [3, 8] of 0.134 mL/min/kg and a Cmax [3, 8] of 43400 ng/mL. For the same compound, the Tmax [3, 8] was 4.0 h, the Vz/F [3, 8] was 0.21 L/kg and the t1/2 [3, 8] was 18 h. The Tmax ([3]; Table S3E: IP 10 mg/kg, female Balb/c mice, Mean N=4) was 4.00 h, the AUC(0-t) [3, 9] was 1320 µg·h/mL and the CL/F [3, 9] was 0.105 mL/min/kg. The Cmax [3, 9] was 52100 ng/mL, the Tmax [3, 9] was 4 h and the Vd/F [3, 9] was 0.179 L/kg. For the same compound, the half-life [3, 9] was 20 h, the level at 1 h [3, 9] was 30800 ng/mL and the level at 2 h [3, 9] was 44700 ng/mL. It also gave a level at 4 h [3, 9] of 52100 ng/mL, a level at 8 h [3, 9] of 43800 ng/mL and a level at 12 h [3, 9] of 39000 ng/mL. For the same compound, the level at 24 h [3, 9] was 25400 ng/mL, the level at 36 h [3, 9] was 17200 ng/mL and the level at 48 h [3, 9] was 11000 ng/mL.
Work on CC[C@H](C)[C@H](NC(=O)[C@H](CC(C)C)NC(=O)[C@H](CC(=O)O)NC(=O)CNC(=O)[C@H](CCCNC(=N)N)NC(=O)[C@@H](NC(=O)[C@H](Cc1ccccc1)NC(=O)[C@H](Cc1ccc(O)cc1)NC(=O)[C@@H]1CCC(=O)NCC(=O)NCC(=O)N[C@@H](CCCCN)C(=O)NCC(=O)N[C@@H](Cc2c[nH]cn2)C(=O)N[C@@H](C(C)C)C(=O)N2CCC[C@H]2C(=O)N1)C(C)C)C(=O)N[C@@H](CO)C(=O)N[C@@H](Cc1ccccc1)C(=O)N[C@@H](Cc1ccc(O)cc1)C(=O)NCC(=O)O [lassotide 28] (GGKGHVPEYFVRGDLISFYG-OH; lactam N-8; C-terminus assumed) yielded an IC50 [1, 4] of 44 nM and an IC50 [2] of 48 nM.
For CC[C@H](C)[C@@H]1NC(=O)[C@H](CCC(N)=O)NC(=O)CNC(=O)[C@H](CCCNC(=N)N)NC(=O)CNC(=O)CNC(=O)CC[C@@H](C(=O)N[C@@H](Cc2ccc(O)cc2)C(=O)N[C@@H](Cc2ccccc2)C(=O)N[C@H](C(=O)N[C@@H](CCCNC(=N)N)C(=O)NCC(=O)N[C@@H](CC(=O)O)C(=O)N[C@@H](CC(C)C)C(=O)N[C@@H](CCC(N)=O)C(=O)N[C@@H](CO)C(=O)N[C@@H](Cc2ccccc2)C(=O)N[C@@H](Cc2ccc(O)cc2)C(=O)NCC(=O)O)C(C)C)NC(=O)[C@@H]2CCCN2C1=O [lassotide 42] (GGRGQIPEYFVRGDLQSFYG-OH; lactam N-8; C-terminus assumed), the IC50 [1, 4] was 3 nM and the IC50 [2] was 2.5 nM.
With CC[C@H](C)[C@@H]1NC(=O)[C@H](CO)NC(=O)CNC(=O)[C@H](CCCNC(=N)N)NC(=O)CNC(=O)CNC(=O)CC[C@@H](C(=O)N[C@@H](Cc2ccc(O)cc2)C(=O)N[C@@H](Cc2ccccc2)C(=O)N[C@@H](CCC(N)=O)C(=O)N[C@@H](CCCNC(=N)N)C(=O)NCC(=O)N[C@@H](CC(=O)O)C(=O)N[C@@H](CC(C)C)C(=O)N[C@@H](CCC(N)=O)C(=O)N[C@@H](CO)C(=O)N[C@@H](Cc2ccccc2)C(=O)N[C@@H](Cc2ccc(O)cc2)C(=O)NCC(=O)O)NC(=O)[C@@H]2CCCN2C1=O [lassotide 44] (GGRGSIPEYFQRGDLQSFYG-OH; lactam N-8; C-terminus assumed) the IC50 [1] was 1.4 nM.
